Earlier results as cited in patent US20100048462A1, “TRUNCATED PTH PEPTIDES WITH A CYCLIC CONFORMATION” (Zealand Pharma A/S, priority 2006, published 2010).

Key:
ovariectomized rats = settings: cited from earlier work
PTH1R = biological target: T1, PTH1R (Homo sapiens, UniProt Q03431); settings: cited from earlier work
T1 sequence (Q03431 27-593): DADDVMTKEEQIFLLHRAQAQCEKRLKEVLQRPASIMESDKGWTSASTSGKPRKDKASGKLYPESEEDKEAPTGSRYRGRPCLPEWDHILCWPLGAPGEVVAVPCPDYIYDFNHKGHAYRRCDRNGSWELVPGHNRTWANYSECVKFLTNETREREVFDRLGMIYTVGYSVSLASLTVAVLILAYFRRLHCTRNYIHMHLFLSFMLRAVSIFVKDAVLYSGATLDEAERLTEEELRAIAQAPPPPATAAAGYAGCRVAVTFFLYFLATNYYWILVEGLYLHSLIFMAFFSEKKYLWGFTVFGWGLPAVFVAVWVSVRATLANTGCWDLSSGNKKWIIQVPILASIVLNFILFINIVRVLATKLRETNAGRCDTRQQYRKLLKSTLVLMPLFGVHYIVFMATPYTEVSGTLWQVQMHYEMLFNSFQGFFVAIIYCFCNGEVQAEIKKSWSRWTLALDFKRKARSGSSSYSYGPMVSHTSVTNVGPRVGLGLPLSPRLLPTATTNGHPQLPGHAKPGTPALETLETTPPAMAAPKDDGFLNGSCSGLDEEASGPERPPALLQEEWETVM

| Substance | bone-anabolic activity, fold less potent than PTH(1-34) (ovariectomized rats; ovariectomized rat model) | bone-anabolic activity (ovariectomized rats; ovariectomized rats) | activation of the PTH1R in vitro (PTH1R) |
| --- | --- | --- | --- |
| PTH(1-29): truncated PTH fragment from the literature (Murrills et al. 2004) (SVSEIQLMHNLGKHLNSMERVEWLRKKLQ; Parathyroid hormone; UniProt P01270 32-60, looked up, fragment) | approximately 20 fold |  |  |
| [Aib^1.3, Phe^7, Nle^8, Arg^11, Ala^12, Trp^14]PTH(1-14) |  | did not exhibit any bone-anabolic activity | activated the PTH1R in vitro |
